Assay results published in the supplement of paper PMC11451515.

System: NOMO1
Assay: cell viability relative to DMSO control; higher = less cytotoxic
Settings: 48 h
Summary of the method: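 Viability is a per-plate percentage relative to DMSO wells, with cell-free wells as background. CellTiter-Glo One luminescence was read after 48 h at 37°C on 1536-well plates (5 μl) of NOMO1 or SEM (500 cells/well) or P12-Ichikawa (1000 cells/well) leukemia cells. The cells had been adapted for at least four passages in each medium and pin-dosed with library compounds in DMSO from 47 μM to 0.79 nM in 11 threefold steps.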

[1] = HPLM + 10% dialyzed FBS, 0.000781 µM
[2] = HPLM + 10% dialyzed FBS, 0.00234 µM
[3] = HPLM + 10% dialyzed FBS, 0.00702 µM
[4] = HPLM + 10% dialyzed FBS, 0.0211 µM
[5] = HPLM + 10% dialyzed FBS, 0.0632 µM
[6] = HPLM + 10% dialyzed FBS, 0.19 µM
[7] = HPLM + 10% dialyzed FBS, 0.569 µM
[8] = HPLM + 10% dialyzed FBS, 1.71 µM
[9] = HPLM + 10% dialyzed FBS, 5.12 µM
[10] = HPLM + 10% dialyzed FBS, 15.4 µM
[11] = HPLM + 10% dialyzed FBS, 46.1 µM
[12] = RPMI 5 mM glucose + 10% FBS, 0.000781 µM
[13] = RPMI 5 mM glucose + 10% FBS, 0.00234 µM
[14] = RPMI 5 mM glucose + 10% FBS, 0.00702 µM
[15] = RPMI 5 mM glucose + 10% FBS, 0.0211 µM
[16] = RPMI 5 mM glucose + 10% FBS, 0.0632 µM
[17] = RPMI 5 mM glucose + 10% FBS, 0.19 µM
[18] = RPMI 5 mM glucose + 10% FBS, 0.569 µM
[19] = RPMI 5 mM glucose + 10% FBS, 1.71 µM
[20] = RPMI 5 mM glucose + 10% FBS, 5.12 µM
[21] = RPMI 5 mM glucose + 10% FBS, 15.4 µM
[22] = RPMI 5 mM glucose + 10% FBS, 46.1 µM
[23] = RPMI 5 mM glucose + 10% dialyzed FBS, 0.000781 µM
[24] = RPMI 5 mM glucose + 10% dialyzed FBS, 0.00234 µM
[25] = RPMI 5 mM glucose + 10% dialyzed FBS, 0.00702 µM
[26] = RPMI 5 mM glucose + 10% dialyzed FBS, 0.0211 µM
[27] = RPMI 5 mM glucose + 10% dialyzed FBS, 0.0632 µM
[28] = RPMI 5 mM glucose + 10% dialyzed FBS, 0.19 µM
[29] = RPMI 5 mM glucose + 10% dialyzed FBS, 0.569 µM
[30] = RPMI 5 mM glucose + 10% dialyzed FBS, 1.71 µM
[31] = RPMI 5 mM glucose + 10% dialyzed FBS, 5.12 µM
[32] = RPMI 5 mM glucose + 10% dialyzed FBS, 15.4 µM
[33] = RPMI 5 mM glucose + 10% dialyzed FBS, 46.1 µM

SMILES | cell viability [1] [%] | cell viability [2] [%] | cell viability [3] [%] | cell viability [4] [%] | cell viability [5] [%] | cell viability [6] [%] | cell viability [7] [%] | cell viability [8] [%] | cell viability [9] [%] | cell viability [10] [%] | cell viability [11] [%] | cell viability [12] [%] | cell viability [13] [%] | cell viability [14] [%] | cell viability [15] [%] | cell viability [16] [%] | cell viability [17] [%] | cell viability [18] [%] | cell viability [19] [%] | cell viability [20] [%] | cell viability [21] [%] | cell viability [22] [%] | cell viability [23] [%] | cell viability [24] [%] | cell viability [25] [%] | cell viability [26] [%] | cell viability [27] [%] | cell viability [28] [%] | cell viability [29] [%] | cell viability [30] [%] | cell viability [31] [%] | cell viability [32] [%] | cell viability [33] [%]
COc1cc([C@H]2Oc3cc([C@H]4Oc5cc(O)cc(O)c5C(=O)[C@@H]4O)ccc3O[C@@H]2CO)ccc1O | 103 | 122 | 119 | 126 | 120 | 123 | 125 | 95.9 | 106 | 119 | 82 | 105 | 124 | 118 | 110 | 114 | 116 | 111 | 100 | 111 | 115 | 103 | 104 | 121 | 115 | 119 | 118 | 100 | 102 | 109 | 106 | 110 | 101
COC/1=C/C=C2\C(=C/C1=O)[C@H](CCC3=CC(=C(OC)C(=C23)OC)OC)NC(C)=O | 36.2 | 33.8 | 45.9 | 49.8 | 40.4 | 27 | 30.5 | 25.3 | 19.8 | 20 | 10.6 | 23.7 | 20 | 17.1 | 20.2 | 21.5 | 24.3 | 17.9 | 7.99 | 12.5 | 10.8 | 2.76 | 23.7 | 21.5 | 23.3 | 29.1 | 24.9 | 21.3 | 23.5 | 13.1 | 14.3 | 12.8 | 3.31
CC(C)c1cnn2c(NCc3ccccc3)cc(NCCCCCCN)nc12 | – | – | – | – | – | – | – | – | – | – | – | 115 | 107 | 117 | 121 | 109 | 122 | 112 | 114 | 116 | 106 | 101 | 115 | 116 | 104 | 125 | 119 | 118 | 114 | 107 | 110 | 101 | 110
C[S+](=O)([O-])c1ccc(C(=O)Nc2ccc(Cl)c(-c3ccccn3)c2)c(Cl)c1 | – | – | – | – | – | – | – | – | – | – | – | – | – | – | – | – | – | – | – | – | – | – | 119 | 110 | 138 | 143 | 130 | 136 | 139 | 144 | 144 | 135 | 128
COC1=C2C[C@@H](C)C[C@H](OC)[C@H](O)[C@@H](C)/C=C(\C)[C@H](OC(N)=O)[C@@H](OC)/C=C/C=C(\C)C(=O)NC(=CC1=O)C2=O | – | – | – | – | – | – | – | – | – | – | – | 108 | 119 | 104 | 119 | 109 | 111 | 109 | 110 | 101 | 80.4 | 4.86 | 112 | 111 | 123 | 113 | 115 | 114 | 113 | 121 | 123 | 81.3 | 5.45
CN(C)c1nc(Cc2ccc(NC(=O)c3ccc4ccccc4c3)cc2)nc(Cl)c1CC(=O)O | 113 | 116 | 112 | 126 | 114 | 90.9 | 106 | 65.2 | 57.6 | 47.2 | 48.1 | 115 | 98.2 | 100 | 98.3 | 100 | 97 | 97.1 | 74.3 | 73 | 61.8 | 44.4 | 108 | 110 | 98.6 | 106 | 111 | 99.4 | 92.9 | 62.1 | 63.1 | 60.7 | 43.6
COC[C@H](c1ccc(C(F)(F)F)cc1)N1CCN(C2(C)CCN(C(=O)c3c(C)ncnc3C)CC2)C[C@H]1C.O=C(O)/C=C\C(=O)O | 85.7 | 106 | 106 | 107 | 114 | 99.8 | 111 | 70.7 | 63.5 | 62.2 | 49.9 | 87.9 | 95.7 | 101 | 97.5 | 93.8 | 103 | 91 | 83.8 | 65.1 | 56.3 | 62.8 | 83.9 | 108 | 92 | 104 | 99.8 | 105 | 101 | 91.8 | 75 | 50.9 | 51.7
Nc1ncnc2ccccc12 | 77.8 | 100 | 100 | 35.2 | 97.8 | 87 | 88.3 | 101 | 88.4 | 105 | 105 | 84.2 | 85.9 | 87.6 | 18.6 | 97.6 | 91.4 | 101 | 95.4 | 88.3 | 90.9 | 81.7 | 88.1 | 84.1 | 79.2 | 44.1 | 81.6 | 86.7 | 89 | 89.9 | 90.6 | 98.4 | 96
COC1=CC=CC(=C1N)\C2=C\C(=O)C3=C(O2)C=CC=C3 | – | – | – | – | – | – | – | – | – | – | – | 120 | 121 | 119 | 117 | 143 | 125 | 143 | 124 | 126 | 121 | 116 | – | – | – | – | – | – | – | – | – | – | –
CC(C)c1cc(C(=O)N2Cc3ccc(CN4CCN(C)CC4)cc3C2)c(O)cc1O | 125 | 118 | 109 | 108 | 126 | 128 | 70.8 | 24 | 20.3 | 19.5 | 19.9 | 97.1 | 107 | 105 | 110 | 105 | 117 | 62.2 | 21.3 | 15.9 | 17.5 | 14.8 | 119 | 120 | 111 | 117 | 119 | 127 | 71.7 | 33.9 | 20.5 | 20.1 | 17.6
C[C@]12CC[C@@H]3c4ccc(O)cc4CC[C@H]3[C@@H]1C[C@@H](O)[C@@H]2O | – | – | – | – | – | – | – | – | – | – | – | 116 | 114 | 106 | 114 | 114 | 107 | 123 | 117 | 118 | 118 | 115 | 115 | 121 | 129 | 125 | 120 | 110 | 114 | 113 | 110 | 105 | 95.9
COc1ccc(C2Sc3ccccc3N(CCN(C)C)C(=O)C2OC(C)=O)cc1 (centres undefined) | 118 | 114 | 124 | 114 | 112 | 114 | 113 | 120 | 119 | 110 | 89.2 | 97.3 | 108 | 105 | 96.9 | 100 | 108 | 99 | 102 | 100 | 95.4 | 94.8 | 115 | 104 | 112 | 107 | 113 | 111 | 115 | 109 | 100 | 98.7 | 85.2
ClC1=CC\2=C(NC(=O)\C(=C2N[C@@H]3CN4CCC3CC4)C5=NC6=C([NH]5)C=CC=C6)C=C1 | 121 | 123 | 121 | 123 | 129 | 49.3 | 36.5 | 35.6 | 32.3 | 28.4 | 17.3 | 113 | 120 | 123 | 110 | 103 | 46.4 | 23.4 | 17.5 | 18 | 12.4 | 13.4 | 101 | 105 | 113 | 108 | 117 | 44 | 23.7 | 20.4 | 25.2 | 18.6 | 18.2
CCN(C(=O)C/1=C(O)/C2=C(C=CC=C2Cl)N(C)C1=O)C3=CC=CC=C3 | 95 | 106 | 97.6 | 99.3 | 87.4 | 84 | 96.6 | 34.9 | 12.5 | 3.29 | 3.67 | 80.5 | 88.8 | 93.4 | 93.8 | 96 | 81 | 90.6 | 43.7 | 15.8 | 2.47 | 2.24 | 96.2 | 89 | 94 | 97.2 | 103 | 83.8 | 91.9 | 53.5 | 22 | 2.48 | 2.14
Cc1csc(NC(=O)c2sc3nc4c(c(C(F)(F)F)c3c2N)CCC4)n1 | 91.6 | 102 | 97.9 | 101 | 96.7 | 96.4 | 99.4 | 91.4 | 94 | 79.6 | 77.6 | 81.7 | 94.4 | 92.3 | 87.4 | 90.6 | 86 | 91.7 | 88.1 | 87.2 | 78.3 | 85.5 | 83.5 | 91.2 | 93 | 93.1 | 91.3 | 89.4 | 91 | 97.9 | 96.3 | 95.3 | 89.7
COC1=CC=C(C=C1O)C/2=C/C(=O)C3=C(O2)C=C(O)C=C3O | 93.3 | 108 | 108 | 108 | 114 | 100 | 95.3 | 98.4 | 94.4 | 93.9 | 110 | 96.4 | 86 | 82.8 | 87.4 | 94.5 | 93.7 | 96.8 | 88.2 | 95 | 105 | 102 | 91.3 | 90.5 | 85.5 | 100 | 105 | 89.8 | 83.6 | 89.5 | 82.5 | 92.5 | 98.2
O=C(Oc1ccc([N+](=O)[O-])cc1)N1CCC(C(O)(c2ccc3c(c2)OCO3)c2ccc3c(c2)OCO3)CC1 | 102 | 95.5 | 93 | 119 | 107 | 92.3 | 107 | 88.5 | 85.3 | 89.8 | 58.4 | 87.7 | 87.7 | 83 | 91.8 | 96.6 | 90.1 | 86.2 | 86.3 | 88.3 | 88.4 | 89.2 | 73.1 | 73.3 | 86 | 80.4 | 90.3 | 77.9 | 84.2 | 71 | 65.6 | 74.6 | 74.5
